We go through one molecule from ChEMBL document CHEMBL4219257, “Novel 8-hydroxyquinoline derivatives targeting β-amyloid aggregation, metal chelation and oxidative stress against Alzheimer's disease” (Bioorg Med Chem, 2018).

Series [1] is described as follows: Inhibition of Cu2+ - induced amyloid beta (1 to 42) (unknown origin) aggregation at 50 uM after 24 hrs by thioflavin T-based fluorometric assay relative to control.
Series [2] in a line: Cytotoxicity against rat PC12 cells assessed as cell viability at 20 uM after 24 hrs by MTT assay relative to control. The class given is cell-based, PC-12. The note with it: read-out: Activity. On the technique in general: Tetrazolium assays rely on reduction of a dye to a coloured formazan, in cell work by metabolically active cells.
In series [3] the test system is PC-12. Kind of series: Inhibition of H2O2-induced ROS level in rat PC12 cells preincubated for 4 hrs followed by H2O2 addition measured after 24 hrs by DCFH-DA staining based flow cytometry. It is filed as functional, cell-based. (In general: In flow cytometry, cells or beads pass a laser one at a time.)
The subject of series [4] is PC-12. Kind of series: Inhibition of H2O2-induced ROS level in rat PC12 cells assessed as mean fluorescence intensity at 5 uM preincubated for 4 hrs followed by H2O2 addition measured after 24 hrs by DCFH-DA staining based flow cytometry (reference value: 16947). The class given is functional.
Series [5] relates to PC-12. Kind of series: Cytoprotection against H2O2-induced apoptosis in rat PC12 cells assessed as early apoptotic cells at 5 uM preincubated for 4 hrs followed by H2O2 addition measured after 24 hrs by Annexin V-FITC/propidium iodide staining based flow cytometry (reference value: 1.5%). The class given is functional.
The subject of series [6] is PC-12. Nature of the series: Cytoprotection against H2O2-induced apoptosis in rat PC12 cells assessed as live cells at 10 uM preincubated for 4 hrs followed by H2O2 addition measured after 24 hrs by Annexin V-FITC/propidium iodide staining based flow cytometry (reference value: 57%). It is filed as functional.
In series [7] the test system is PC-12. Kind of series: Cytoprotection against H2O2-induced apoptosis in rat PC12 cells assessed as late apoptotic cells at 10 uM preincubated for 4 hrs followed by H2O2 addition measured after 24 hrs by Annexin V-FITC/propidium iodide staining based flow cytometry (reference value: 32.6%). It is filed as functional.
The subject of series [8] is PC-12. Nature of the series: Cytoprotection against H2O2-induced apoptosis in rat PC12 cells assessed as necrotic cells at 10 uM preincubated for 4 hrs followed by H2O2 addition measured after 24 hrs by Annexin V-FITC/propidium iodide staining based flow cytometry (reference value: 8.9%). The class given is functional.
A short description of series [9]: in vitro. The note with it: PAMPA. In general terms: In PAMPA a lipid-coated filter parts donor from acceptor wells.
Description: Permeability of the compound at 100 ug/ml after 10 hrs by PAMPA

Take `O=C(CCc1ccccc1Cl)N1CCN(Cc2ccc(O)c3ncccc23)CC1`: the inhibition is 88.9% in [1] and “Dose-dependent effect” in series [3]. Further, the viability at 24 h, 20 µM in [2] worked out at 83%. For the same molecule, the Flu intensity in series [4] is listed as 10332. The Activity in series [5] is given as 2.3%; in series [6], 90.9%; in series [7], 5.8%; in series [8], 1.3%. Besides, the Papp at 10 h, 100 ug/ml in series [9] is 11.1 ×10⁻⁶ cm/s.

For orientation: inhibition means the share of the control response that was lost under treatment. The term Papp denotes the rate of passage across a membrane or cell layer, normalised by area and donor concentration. A high value points to fast passage.
